Measurements as given in patent publication US20100150999A1, “THERAPY OF CANCER BASED ON TARGETING ADAPTIVE, INNATE AND/OR […] OF THE IMMUNE RESPONSE” (priority 2006, published 2010).

Columns and labels:
[1] = tested on: TC-1 cells expressing HPV16-E6 and HPV16-E7; test: TC-1 tumor model in C57BL/6 mice (tumor growth, eradication, survival); format: in vivo; conditions: for Effect on tumor growth: large TC-1 tumors, treated day 24/25
Method: TC-1 cells expressing HPV16-E6 and HPV16-E7 proteins derived from primary mouse lung epithelial cells were obtained from the American Type Culture Collection (LGC Promochem, Molsheim, France) (14). EL4-E7 cells, a mouse lymphoma expressing HPV16-E7 (15). Cells were maintained in RPMI 1640 with GlutaMAX supplemented with 10% heat-inactivated fetal calf serum, 100 units/ml penicillin, 100 μg/ml streptomycin, 0.4 mg/ml geneticin and 5×10^−5 mol/l 2-mercaptoethanol (Life Technologies, Cergy-Pontoise, France).
Thirty μg of CpG ODNs or pU were diluted in 50 μl of Optimen medium (Gibco, Grand Island, N.Y., USA) and mixed with 60 μg of DOTAP (Roche, Mannheim, Germany) diluted in 100 μl of Optimen. The rest of the reagents were diluted in PBS before injection. Cyclophosphamide (CTX) (Sigma, Steinheim, Germany) and doxorubicin (DOX) (Calbiochem, La Jolla, Calif., USA) were diluted respectively in PBS and in sterile water before injection. The different antigenic formulations and adjuvants were injected simultaneously except chemotherapeutic agents that were given 24 h before vaccine. Intravenous administrations were performed by retroorbital injection in a volume of 200 μl, intratumoral administrations were done by injection in a volume of 50 μl and subcutaneous administration were performed in 200 μl.
Tumor growth data were analyzed by non-linear mixed effect models using Monolix software (http://www.math.u-psud.fr/˜lavielle/monolix/). Mean diameters of tumors over time were fitted using the model described in (17) and treatments were compared using the Likelihood Ratio test. Kaplan-Meier plots were used to analyzed survival, and a log rank test was used to examine statistical significance of differences in the survival curves using Prism software (GraphPad Software, Inc. San Diego, USA). Data from in vivo CTL and tetramer staining were compared by ANOVA followed by Dunnett posttest. p values less than 0.05 were considered to be statistically significant.

[2] = tested on: regulatory T cells, myeloid cells, NK cells, tumor-specific CD8+ T cells; test: Flow cytometric analysis of immune cells in spleen, draining lymph nodes and tumor after treatment; format: in vivo, mice
Method: FIG. 9. Changes in immune cells after tritherapy on day 25. […] Groups of mice were sacrificed before treatment (day 0), 24 hour after CTX alone (day 1) or on days 4, 7 or 11 after tritherapy administration. Spleen, tumor draining lymph nodes and tumor were excised, ground to prepare the cell suspensions, stained and analyzed by flow cytometry. Pooled data of two experiments are shown (n=4-6 mice). Bars represent mean values and the error bars correspond to standard error of the mean. *<0.05 **<0.01. A) Percentage of CD4^+ cells that express CD25 and FoxP3. B) Percentage of CD4^+ cells that are CD25^− and FoxP3^+. C) Percentage of CD4^+ cells that express FoxP3. D) Percentage of CD8^+ cells that are tetramer^+ and CD44^+. E) Percentage of CD11c+ cells. F) Percentage of CD11 b^+ cells. G) Percentage of GR1+ cells. H) Percentage of CD11 b^+ GR1+ positive cells.
FIG. 11. Phenotype of myeloid cells induced by tritherapy and by tumor growth. […] Tritherapy treated mice received on day 24, 2.5 mg CTX i.p and 24 h later, 50 μg CyaA-E7 and 30 μg CpG-B/DOTAP. PBS treated mice received 200 μl of PBS on day 25. […] Spleens were excised, ground to prepare the cell suspensions, stained and analyzed by flow cytometry. […]
FACScalibur (Becton Dickinson, Franklin Lakes, N.J., USA) was used for flow cytometry and events were analyzed with CELLQuest software (Becton Dickinson, Franklin Lakes, N.J., USA).

TC-1 cells = conditions: RAG1-/- mice, 2.5 mg CTX i.p. day 24
Method: Specific pathogen-free 5-week-old female C57BL/6 mice were purchased from Charles River (L'Arbresle, France) and were kept in the Pasteur Institute animal facilities under pathogen-free conditions with water and food ad libitum. C57BL/6-RAG1^−/− mice were obtained from the Jackson Laboratory, USA. Experiments involving animals were conducted according to the institutional guidelines for animal care.
Tumor cells lines (5×10^5 TC-1 cells or 4×10^6 EL4-E7 cells) were inoculated into the shaved left back of C57BL/6 mice in 200 μl volume of PBS.

Compound: polyinosinic-polycytidylic acid [PIC]
- Effect on tumor growth [1]: none of these TLR ligands administered alone had any effect on the tumor growth

Compound: O=P1(N(CCCl)CCCl)NCCCO1 (stereo not shown) [CTX, Cyclophosphamide]
- Percentage of CD25+FoxP3+/CD4+ in tumor-infiltrated lymphocytes ([2]; four days after administration, from around 50%): below 30%
- Lymphodepletion ([2]; spleen and lymph node, TC-1 tumor-bearing mice): transient lymphodepletion in spleen and lymph node that reverted by day 7
- Tumor growth delay (TC-1 cells): not observed
- Effect on tumor growth [1]: significantly delayed tumor growth
- Effect on tumor growth ([1]; listed as cyclophosphamide): transiently control tumor growth
- Induction of tumor regression / complete eradication ([1]; without CyaA-E7, treated day 24/25): not able to induce the complete eradication
